The source of these data is PMC7225193, “An Integrated Dialysis Pharmacometric (IDP) Model to Evaluate the Pharmacokinetics in Patients Undergoing Renal Replacement Therapy” (Pharmaceutical Research, 2020).

For data set [1] the following is noted: cited from earlier work.
The nature of data set [2]: In vitro RRT study of teicoplanin in bovine blood, evaluated with the IDP model. In kind it is in vitro ADME. How it is done:
For all population pharmacokinetic modelling work in this study, NONMEM® (ICON development service, Gaithersburg, MD, version 7.4) was used. The inter-individual variability of the pharmacokinetic parameters was assumed to be log-normally distributed. For the intra-individual, residual variability an additive, proportional or combined error model was used. In the clinical data examples, models were evaluated by graphical and numerical criteria (goodness of fit plots, visual predictive checks and drop in objective function value (dOFV)). The LLP-SIR (log-likelihood-profiling based sampling-importance-resampling) method was employed for the assessment of parameter uncertainty, since a small number of subjects or cases was investigated.
An in vitro study investigating RRT of teicoplanin in bovine blood was evaluated using the IDP model. 51 pre-filter plasma samples and 45 post-filter plasma samples were included. 45 effluent samples were collected which were all below the lower limit of quantification (5 mg/L), which was considered in the analyses by comparison to simulations after estimation. A blood concentration of 25 mg/L using a volume of 2.2–2.5 L was studied. The blood flow rate was set to 250 mL/min and the dialysate flow rate to 500 mL/min without filtration. In five experiments, a polysulphone membrane (n = 3: FX80, Fresenius Medical Company, Austria, n = 2: F60 S, Fresenius Medical Company, Austria), and in one experiment a triacetate membrane (Ni 21 e, Surflux-21E, Nipro Corporation, Japan) was used. The IDP model was used to describe the RRT clearance and adsorption to the dialysis membranes was evaluated.

The conditions of data set [3]: patients with normal serum albumin concentrations; cited from earlier work. The text has this: Protein binding plays an important role when the RRT clearance is only estimated based on drug characteristics, since it is assumed that only unbound drug can be dialyzed or filtrated. The integrated model allows direct assessment of the RRT clearance without assumptions on the efficacy in dialysis and filtration processes based on the unbound fraction. Moreover, elimination processes, that are independent of dialysis and filtration, e.g. adsorption to the dialysis membrane, can be quantified. RRT clearance of highly protein bound drugs, e.g. teicoplanin presenting a protein binding of >90% in ...

A value given as a limit tells only on which side of the number the result lay.

Turning to `C[C@@H](O)[C@H]1C(=O)N2C(C(=O)O)=C(S[C@@H]3CN[C@H](CNS(N)(=O)=O)C3)[C@H](C)[C@H]12` [Doripenem, doripenem], the “degradation half-life in stabilizing conditions” value in data set [1] is greater than 100 h.

For teicoplanin, the CLRRT in data set [2] (bovine blood, 25 mg/L, blood flow 250 mL/min, dialysate flow 500 mL/min, no filtration, IDP model) is listed as 76.5 mL/min. In data set [2] (bovine blood, IDP model), the “FractionAdsorbed (fraction of the RRT clearance mediated via adsorption)” value was 0.891. For the same molecule, the RRT clearance in data set [2] (bovine blood, IDP model, changing over time) was determined as 4.59 L/h. Besides, the “Ads. capacity polysulfone FX80/F60S” value in data set [2] (polysulphone membranes, five experiments) was determined as 31.2 mg. This molecule returned an Adsorption capacity triacetate in data set [2] (triacetate membrane Ni 21 e, n = 1 experiment) of 8.6 mg. Moreover, the protein binding in data set [3] is recorded as greater than 90%.
